Data on eleven compounds can be found in patent publication US6949516B2, “Dipeptide apoptosis inhibitors and the use thereof” (Cytovia, Inc., priority 1997, dated 2005).

For assay [1], the system named is HeLa cells. The assay is described as follows: Cell death assay with HeLa cells, quantitative (calcein AM), TNF-α/CHX challenge. Type of assay: cell-based. Here is the method:
(§1) The cytoprotective properties of Cbz-Val-Asp(OMe)CH2F were tested using HeLa cells challenged with tumor necrosis factor-alpha (TNF-α) and cycloheximide (CHX). This is a well-characterized cell culture model of apoptosis which is commonly used to analyze anti-apoptotic agents. Two types of experiments were performed: a qualitative assessment of cell death by visualization of the cells using phase contrast microscopy; and a quantitative assessment of cell death using the fluorescent dye calcein AM.
For quantitative assays, the degree of cell survival in the presence of test compounds is analyzed quantitatively using the indicator dye calcein AM. This dye is taken up and converted to a fluorescent derivative by living cells; the amount of activated dye in each well can then be assayed in a fluorometric plate reader and the degree of fluorescence is used as a measure of the number of surviving cells. For these assays, HeLa cells are seeded in 48-well plates at a density of 25,000 cells per well in 0.4 mL of Minimal Essential Medium containing 2 mM glutamine and 10% fetal bovine serum. 24 hours later the plating medium is removed and 0.5 mL of fresh medium containing test compound at various concentrations is added. The cells are pre-incubated with test compound for 2 hours at 37° C. in a CO2 incubator and then TNF-α and CHX are added at final concentrations of 25 ng/mL and 30 μg/mL, respectively. After a 24 hour incubation period, the cultures are washed twice with serum-free, phenol red-free Ham's F12 to remove dead cells and 125 μL of Ham's F12 containing 8 μM calcein AM is added. […] The data are expressed as “Percent Control,” which is calculated by the following equation: Percent Control=(Calcein AM Signal in the Presence of Test Compound+TNF-α and CHX/(Calcein AM Signal in the Presence of CHX Only)×100% The use of CHX-treated cultures as controls, rather than untreated cultures, allows one to correct for the cytostatic effects of CHX. However, because CHX by itself is also a mild inducer of apoptosis in HeLa cells, strong anti-apoptotic drugs will give a Percent Control value greater than 100%.
Quantitative experiments using calcein AM, as described above, corroborate the results obtained by microscopic examination. FIGS. 4 and 5 illustrate the results of two such experiments where the cytoprotective properties of Cbz-Val-Asp(OMe)-CH2F (a) were compared to BOC-Asp(OMe)-CH2F (b) (FIG. 5) and Cbz-Asp(OMe)-Glu(OMe)-Val-Asp(OMe)-CH2F (SEQ ID NO:1) (c) (FIG. 4) at three concentrations (0.5, 5 and 50 μM). […] By contrast, Cbz-Val-Asp(OMe)-CH2F (a) is as effective a cytoprotectant at 0.5 μM as Cbz-Asp(OMe)-Glu(OMe)-Val-Asp(OMe)-CH2F (SEQ ID NO:1) […] is at 50 μM (FIG. 4).
In order to determine the effect of Cbz-Val-Asp(OMe)-CH2F at low doses, HeLa cells were treated with a range of concentrations from 0.05 μM to 1 μM.

Assay [2] has as its system PARP cleavage in Jurkat cells. The assay is described as follows: Inhibition of PARP cleavage in antiFas-treated Jurkat cells (Example 22, Western blot). Type of assay: cell-based, human. As to conditions: antiFas-treated Jurkat cells. The source says:
The cleavage of the enzyme poly(ADP)ribose polymerase (PARP) appears to occur in all cells in which the caspase proteolytic cascade is activated. For this reason, PARP cleavage is widely used as a biochemical marker for caspase-mediated apoptosis. The ability of a cytoprotective drug to block PARP cleavage is considered to be an indication of the drug's ability to inhibit the caspase proteolytic cascade and, in particular, CPP32 (caspase-3), the main PARP protease. The ability of Cbz-Val-Asp(OMe)-CH2F to inhibit PARP cleavage was examined during Fas-mediated apoptosis of Jurkat cells, a human T-cell line. This cell culture model of apoptosis is well-characterized and is known to involve activation of at least two caspases, caspase-3 (CPP32) and caspase-8 (FLICE/MACH).
For PARP cleavage assays, Jurkat cells were seeded at a density of 500,000 cells per well in six-well multidishes in RPMI 1640 medium containing 10% FBS. The cells were pre-incubated with Cbz-Val-Asp(OMe)-CH2F or other test compounds for 2 hours at 37° C. in a CO2 incubator and then a monoclonal antibody to Fas was added at a final concentration of 500 ng/mL. Incubation at 37° C. in a CO2 incubator was continued for an additional 4 hours. […] An amount of lysate corresponding to 10 to 20 μg of protein was loaded on a 7.5% SDS polyacrylamide gel and electrophoresed for 2 to 2.5 hrs at 25 mA. The protein was then transferred to a PVDF membrane, probed with a rabbit polyclonal antibody to PARP, and visualized using chemiluminescence.
Jurkat cells were pre-incubated with 0.5, 5, or 50 μM of the following compounds: Cbz-Val-Asp(OMe)-CH2F (compound 1); BOC-Asp(OMe)-CH2F (compound 5); Cbz-Asp-α-([2,6-dichlorobenzoyloxy]-methyl ketone) (compound 6), Cbz-Glu(OMe)-Val-Asp(OMe)-CH2F (compound 3), Cbz-Asp(OMe)-Glu(OMe)-Val-Asp(OMe)-CH2F (SEQ ID NO:1) (compound 2), Cbz-Ile-Glu(OMe)-Thr-Asp(OMe)-CH2F (SEQ ID NO:2) (compound 4), or Cbz-Val-Ala-Asp(OMe)-CH2F (compound 7). The cells were then treated with antiFas and processed for Western Blotting.
(In general: A western blot detects proteins with antibodies after separation by electrophoresis.)

The test system of assay [3] is HeLa cells. Description: Cell death assay with HeLa cells, qualitative (phase contrast microscopy), TNF-α/CHX challenge. Type of assay: cell-based. Particulars: 24 hour incubation. The procedure: as §1
For photomicroscopy, HeLa cells are seeded in 12-well multidishes at a density of 100,000 cells per well in Minimal Essential Medium containing 2 mM glutamine and 10% fetal bovine serum. 24 hours later the plating medium is removed and fresh medium is added containing the cytoprotective test compound at various concentrations. The cells are pre-incubated with test compound for 2 hours at 37° C. in a CO2 incubator and then TNF-α and CHX are added at final concentrations of 25 ng/mL and 30 μg/mL, respectively. After a 24 hour incubation period, the cells are examined visually for evidence of cell death based on cell shape and degree of adherence. Cells are considered dead if they have become rounded up and phase bright and have detached from the substratum. Cells are considered alive if they have retained their normal morphology and remain attached to the substratum.
All of these compounds are the methyl ester derivatives. […] At 50 μM, the related peptides BOC-Asp(OMe)-CH2F (FIG. 1C) and Cbz-Glu(OMe)-Val-Asp(OMe)-CH2F (FIG. 1E) are also protective.

The target in assay [4] is T1, Caspase-3 (Homo sapiens, UniProt P42574).
T1 sequence (P42574 29-175 limits assumed): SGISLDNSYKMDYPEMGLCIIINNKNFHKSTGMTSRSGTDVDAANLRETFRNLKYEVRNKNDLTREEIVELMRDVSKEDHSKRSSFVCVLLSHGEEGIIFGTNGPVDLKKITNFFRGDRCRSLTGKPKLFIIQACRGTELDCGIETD
The assay is described as follows: Caspase-3 activity of the dipeptide inhibitors (Table III). Type of assay: biochemical.

Where a SMILES comes first, the peptide text is derived from it. The star is where a group is joined. Cbz = O=C(OCc1ccccc1)*; CH2F = FC*

As for `COC(=O)CC(NC(=O)OC(C)(C)C)C(=O)CF` (stereo not shown) [BOC-Asp(OMe)-CH2F], the “protection of HeLa cells from TNF-α/CHX (calcein AM)” value in assay [1] (0.5 μM) was “inactive”; in assay [1] (5 μM) it was “effective cytoprotectant”; in assay [1] (50 μM) it was “effective cytoprotectant”. Further, the “inhibition of PARP cleavage” value in assay [2] (0.5 μM) is given as “only marginally effective”; in assay [2] (5 μM) it was “effective inhibitors”; in assay [2] (50 μM), “effective inhibitors”. Moreover, the figures for the “cytoprotection of HeLa cells from apoptotic effects of TNF-α and CHX (microscopy)” value (“cytoprotection of HeLa cells … (microscopy)” below) in assay [3] (5 μM) and in assay [3] (50 μM) were “less effective” and “protective”, respectively.
A word on the IC50: it is the concentration that inhibits the measured activity by half. A low value points to higher potency. In turn, Cbz-Ala-Asp-CH2F [Z- -Ala-Asp-fmk] gave an IC50 in assay [4] of 3500 nM.
In the case of `COC(=O)CC[C@H](NC(=O)OCc1ccccc1)C(=O)N[C@H](C(=O)N[C@@H](CC(=O)OC)C(=O)CF)C(C)C` [Cbz-Glu(OMe)-Val-Asp(OMe)-CH2F], the “inhibition of PARP cleavage” value in assay [2] (0.5 μM) was “only marginally effective”; in assay [2] (5 μM), “effective inhibitors”; in assay [2] (50 μM), “effective inhibitors”. Moreover, the “cytoprotection of HeLa cells … (microscopy)” value in assay [3] (5 μM) is recorded as “less effective”; in assay [3] (50 μM) it was “protective”.
In assay [4], `CC(C)[C@@H](C(=O)N[C@@H](CC(=O)O)C(=O)CF)N(C)C(=O)OCc1ccccc1` [Z-N-Me-L-Val-Asp-fmk, Z-N-Me-Val-Asp-fmk] registered an IC50 of 1300 nM.
On to `O=C(O)C[C@H](NC(=O)[C@H](Cc1ccc(O)cc1)NC(=O)OCc1ccccc1)C(=O)CF` [Z-L-Tyr-Asp-fmk, Z-Tyr-Asp-fmk] (Cbz-Tyr-Asp-CH2F), for which the IC50 in assay [4] was determined as 660 nM.
For the compound `CC[C@H](C)[C@H](NC(=O)OCc1ccccc1)C(=O)N[C@@H](CCC(=O)OC)C(=O)N[C@H](C(=O)N[C@@H](CC(=O)OC)C(=O)CF)[C@@H](C)O` [Cbz-Ile-Glu(OMe)-Thr-Asp(OMe)-CH2F] (Cbz-IE(OMe)TD(OMe)-CH2F), the “inhibition of PARP cleavage” value in assay [2] (0.5 μM) is “only marginally effective”; in assay [2] (5 μM) it was “only marginally effective”; in assay [2] (50 μM), “inhibited PARP cleavage completely”.
Take `COC(=O)C[C@H](NC(=O)[C@H](C)NC(=O)[C@@H](NC(=O)OCc1ccccc1)C(C)C)C(=O)CF` [Cbz-Val-Ala-Asp(OMe)-CH2F] (Cbz-Val-Ala-Asp(OMe)-CH2F): in assay [1] (concentration range 0.05 μM to 1 μM), the “cytoprotection of HeLa cells from TNF-α/CHX at low doses” value is “no cytoprotection”. Besides, the entries for the “inhibition of PARP cleavage” value in assay [2] (0.5 μM), in assay [2] (5 μM) and in assay [2] (50 μM) were “only marginally effective”, “effective inhibitors” and “effective inhibitors”, respectively.
For the compound `O=C(O)CC(NC(=O)C(Cc1cnc[nH]1)NC(=O)OCc1ccccc1)C(=O)CF` [Z-L-His-Asp-fmk, Z-His-Asp-fmk] (Cbz-His-Asp-CH2F; configuration not given here), the half-inhibitory concentration (IC50) in assay [4] was 770 nM.
Turning to `O=C(O)C[C@H](NC(=O)[C@@H]1CCCN1C(=O)OCc1ccccc1)C(=O)CF` [Z-L-Pro-Asp-fmk, Z-Pro-Asp-fmk] (Cbz-Pro-Asp-CH2F), the IC50 in assay [4] is 410 nM.
Consider `COC(=O)CC[C@H](NC(=O)[C@H](CC(=O)OC)NC(=O)OCc1ccccc1)C(=O)N[C@H](C(=O)N[C@@H](CC(=O)OC)C(=O)CF)C(C)C` [Cbz-Asp(OMe)-Glu(OMe)-Val-Asp(OMe)-CH2F], for which the “protection of HeLa cells from TNF-α/CHX (calcein AM)” value in assay [1] (50 μM) is recorded as “only minimally effective”. Also, the “inhibition of PARP cleavage” value in assay [2] (0.5 μM) is “only marginally effective”; in assay [2] (5 μM) it was “only marginally effective”; in assay [2] (50 μM), “inhibited PARP cleavage completely”. Moreover, the “cytoprotection of HeLa cells … (microscopy)” value in assay [3] (5 μM) was “no cytoprotective properties”; in assay [3] (50 μM), “only marginally effective”.
`O=C(O)CC(NC(=O)OCc1ccccc1)C(=O)COC(=O)c1c(Cl)cccc1Cl` (stereo not drawn) [Cbz-Asp-DCB, Cbz-Asp-α-([2,6-dichlorobenzoyloxy]methylketone)]: the “inhibition of PARP cleavage” value in assay [2] (0.5 μM) is given as “only marginally effective”; in assay [2] (5 μM), “only marginally effective”; in assay [2] (50 μM), “inhibited PARP cleavage completely”.
